pIC50: −log10 of the molar value. Where “and” joins values, the source holds several entries; their conditions need not be identical. Equal entries are not always repeated. Entries after “also recorded” stand apart in the source; their conditions may differ.
Assays:
[1] = molecular target: GABA "receptors"; test: Inhibition of [3H]GABA binding to synaptic membranes from rat cerebellum; conditions: [3H]GABA (15 nM); synaptic membrane preparations from rat cerebellum
Description: IC50 values were determined by fitting data to linearized transformations, based on including at least two concentrations of antagonists above and below the IC50, with at least triplicate replication per concentration.

[2] = test system: general motor activity of mice; test: General locomotor activity of mice (Stoelting electronic activity monitor); assay type: in vivo, Balb/c mice; conditions: for activity in the general motor activity test (in words): i.p., mice; for In Vivo Inhibition of General Motor Activity: graded 0-5; for effect on motor activity at low doses: 10 mg/kg (19 µmol/kg) or below, 10 mg/kg
Description: The effect of intraperitoneal (i.p.) injections of test compounds on the general motor activity of mice during a 60-min period was determined in a Stoelting electronic activity monitor. Dose-response curves were obtained from which the half-maximally effective values were calculated and the results are shown in Table V.
The compounds were dissolved in 25% (vols.) propylene glycol in water and injected i.p. into Balb/c mice (18-24 g). Dose-response measurements were obtained for 6 animals per dose or time point. Activity was monitored for 60 min using a Stoelting Electronic Activity Monitor (EAM) apparatus to assess the general motor activity of the animals.
The general locomotor activity of mice was measured in the Stolting activity monitor apparatus during 60 min after an intraperitoneal (i.p.) injection of a test compound.

[3] = Comparative brain/liver uptake of 14C-labeled compounds (Brain Penetration Index); conditions: for increase of 5-min BPI over GABA: 5 min after s.c. injection, relative to GABA
Description: The criterion used herein for measuring the extent to which a compound, from which the radical A is derived, crosses the blood-brain barrier is based on the uptake of this compound by the brain relative to its uptake by the liver. […] Measurements of the quantity of a compound present in brain and liver at 5 minutes after a subcutaneous (s.c.) injection were used to calculate a Brain Penetration Index (BPI), with the equation: [formula]
This is the amount of the compound present per gram of brain tissue as a percent of the amount per gram of liver tissue.
This procedure has the advantage that even for a sparingly soluble lipid ester, which tends to remain largely at the site of the injection and slowly diffuse into the circulation, its level in the liver will reflect the amount available rather than the initial dose injected.
The uptake of a ^14C-labeled compound into brain was compared with the uptake into liver of the same animal.
All determinations were carried out at 5 min after injection. The volumes of the injected doses into mice (body weight, 18-24 g) for the i.v., i.p., and s.c. doses were 0.15, 0.3 and 0.5 ml, respectively. […] Each tissue was homogenized in 8 ml of pyridine in a glass homogenizer.
Each labeled test compound was injected as a solution in 0.5 ml of saline (Compound 7) or in 25% propylene glycol in water (Compounds 1, 5, 6) subcutaneously (s.c.) into young adult Balb/c mice (18-24 g body weight). After 5 min (or longer) animals were sacrificed and the brain and liver removed, weighed and homogenized respectively in 8 ml and 10 ml of brain protein solvent (1 % (w/v) sodium dodecyl sulfate in 6 M urea and 19 mM EDTA, pH 7.4, 0.03 M phosphate). Aliquots (0.5 ml) of the homogenates were mixed with 10 ml of Aquasol 2 (New England Nuclear) and counted in a Beckman liquid scintillation counter. The total uptake of each compound per g brain and liver tissue was calculated. The proportion of uptake into brain as compared to liver (100%) of the same animal was designated as the Brain Penetration Index (BPI), expressed as a percentage typically at 5 min after injection.
Each of the ^14C-labeled Compounds 26, 28 and 30 were in 125 µl of the propylene glycol diluted with water up to 0.5 ml, and then injected subcutaneously into test Balb/c mice (20 ± 2 g weight). After 5 min the animals were sacrificed and the brain and liver were removed, weighed and homogenized in 8 ml and 10 ml of brain protein solvent, respectively. Next 0.5 ml aliquots were mixed with 10 ml of Aquasol 2 (New England Nuclear Corp., Boston, MA) and counted in a Beckman liquid scintillation counter. The data for the label in each tissue were used to calculate the total quantity of the compound present in brain and liver per gram of tissue. The ratio of the amount in brain as a percent of that present in liver at 5 min was taken as the Brain Penetration Index (BPI). Measurements at longer uptake times were also obtained to evaluate the accumulation of the compounds in the brain.

[4] = test system: bicuculline-induced epileptic seizures; test: Delay of onset of bicuculline-induced seizures (anticonvulsant activity); assay type: in vivo, mouse; conditions: for Onset of seizures: % Saline Control / Survival Time: % Saline Control: 24 hr pretreatment, bicuculline 0.3 mg/kg; for In Vivo Delay of Time of Onset of Bicuculline-induced seizures: graded 0-5; for anticonvulsant properties: administered at doses of 30 mg/kg
Description: In a second behavioral test, the ability of a substance to prevent or delay the onset of biculline-induced epileptic seizures was measured. […] At 24 hr after i.p. injection of the cholesteryl derivative at a dose of 30 mg/kg (64 pmol/kg), the onset of seizures was delayed by 30% after an acute i.p. injection of bicuculline at 0.3 mg/kg. […] The dexamethasone and butyl esters had no effect.
The compounds were also injected i.p. at 1, 6 and 24 hr before the administration of bicuculline (0.3 mg/kg) s.c. The latency to the onset of generalized tonic-clonic epileptic seizures and the protection against the lethality of bicuculline were measured and evaluated as a percent of the data for vehicle-injected controls. No significant changes were obtained at the 1 hr and 6 hr time points. At the 24 hr time, however, some compounds delayed while others accelerated the onset of seizures.
The effect of the compound to delay the onset of a bicuculline-induced seizures was evaluated.
The ability of a substance to delay the onset of bicuculline-induced epileptic seizures in the mouse was measured (Table X). […] At 24 hr after i.p. injection of the cholesteryl derivative (6) at a dose of 30 mg/kg (64 pmol/kg), the onset of seizures was delayed by 30% (as compared to saline controls) after an acute i.p. injection of bicuculline at 0.3 mg/kg. […] The dexamethasone and butyl esters had no effect on seizures in mice.

[5] = test system: general motor activity of mice; test: General locomotor activity of mice (Stoelting electronic activity monitor); assay type: in vivo, Balb/c mice; conditions: Mus musculus, ip, 1 h; i.p.; 60-min general motor activity vs vehicle-injected and uninjected controls; 8 animals per dose
[6] = test system: stereotypic behavior; test: Stereotypy behavior test (apomorphine or D-amphetamine induced); assay type: in vivo, mice
Description: Stereotypy tests were carried out by the method of A. Campbell et al, Neuropharmacol. 21, 953 (1982). Test mice were pretreated with Compound 26 (i.p. injection), then 15 min later apomorphine or D-amphetamine sulfate was injected i.p. The animals were observed every 10 min and rated for stereotypic behavior in comparison to controls.
Rating scale: • 0 = no stereotypy • 1 = discontinuous sniffing • 2 = continuous sniffing • 3 = continuous sniffing and jaw movements
The average total score per animal was obtained (maximum positive score = 18) over a 60-min period. A compound which depresses this score is considered to have properties of a neuroleptic with a potential for use as an antipsychotic agent. The results (see Table VIII) show a pronounced reduction of stereotypy, down to 24% of control.

[7] = in vivo; conditions: mouse, sc
[8] = n-Octanol/water partition coefficient; assay type: physicochemical; conditions: 5 ml n-octanol / 5 ml water, stirring 18 hours; read-out: KOW: Octanol/Water Partition Coefficient (converted)
Description: A Partition Coefficient was defined by the equation: [formula] representing the amount of the ester taken up per ml of n-octanol relative to the amount of the same compound taken up per ml of water.
The n-octanol/water partition coefficients were obtained from measurements of the distribution of 1, 3, 5 and 6 pmol quantities of each ^14C-labeled compound into a mixture of 5 ml of n-octanol and 5 ml water. At each concentration, the amount of labeled compound in the aqueous and n-octanol phases was calculated from the amount of radioactive material present after stirring for 18 hours.

[9] = mouse, in vivo
[10] = 260 μmol/kg s.c., 5 min, mice, mean ± S.E.M. (n = 3)
[11] = Table IX summary, 5-min Brain Penetration Index
[12] = 188 μmol/kg s.c., 5 min, Balb/c mice, mean ± S.E.M. (3 measurements)
[13] = 200 μmol/kg s.c., 60 min, Balb/c mice
[14] = 360 μmol/kg s.c., 180 min, Balb/c mice
[15] = 20 μmol/kg s.c., 60 min, Balb/c mice
[16] = 60 μmol/kg s.c., 240 min, Balb/c mice
[17] = 67 μmol/kg s.c., 5 min, Balb/c mice, mean ± S.E.M. (3 measurements)
[18] = 170 μmol/kg s.c., 60 min, Balb/c mice

SMILES: CC/C=C\C/C=C\C/C=C\CCCCCCCCOC(=O)CCCN [Compound 5, Linolenoyl Ester of y-aminobutyric Acid]
- pIC50 [1]: 4.40
- activity in the general motor activity test (in words) ([2]; listed as linolenyl ester): not active
- activity in the general motor activity test (in words) ([2]; listed as linolenyl ester of GABA): insignificant effect; also recorded: no significant effect
- (BRAIN) [3, 10]: 3.5 ± 0.4 nmol/g
- (LIVER) [3, 10]: 141.7 ± 8 nmol/g
- BPI [3, 10]: 2 ± 0.6%
- (BRAIN) ([3]; 260 μmol/kg s.c., 15 min, mice): 11.0 nmol/g
- (LIVER) ([3]; 260 μmol/kg s.c., 15 min, mice): 220.8 nmol/g
- BPI ([3]; 260 μmol/kg s.c., 15 min, mice): 5%
- (BRAIN) ([3]; 260 μmol/kg s.c., 45 min, mice): 24.9 nmol/g
- (LIVER) ([3]; 260 μmol/kg s.c., 45 min, mice): 33.3 nmol/g
- BPI ([3]; 260 μmol/kg s.c., 45 min, mice): 75%
- increase of 5-min BPI over GABA [3]: 2 fold
- BPI [3, 11]: 2
- accumulation of radioactivity in brain persisted post-injection ([3]; s.c., mice): 45 to 60 min
- Onset of seizures: % Saline Control ([4]; 12 mg/kg): 102 ± 4 % Saline Control
- Survival Time: % Saline Control ([4]; 12 mg/kg): 118 ± 10 % Saline Control
- Onset of seizures: % Saline Control ([4]; 17 mg/kg): 73 ± 15 % Saline Control
- Survival Time: % Saline Control ([4]; 17 mg/kg): 111 ± 14 % Saline Control
- Onset of seizures: % Saline Control ([4]; 25 mg/kg): 78 ± 9 % Saline Control
- Survival Time: % Saline Control ([4]; 25 mg/kg): 68 ± 9 % Saline Control
- Onset of seizures: % Saline Control ([4]; 36 mg/kg): 50 ± 5 % Saline Control
- Survival Time: % Saline Control ([4]; 36 mg/kg): 62 ± 6 % Saline Control
- Onset of seizures: % Saline Control ([4]; 50 mg/kg): 40 ± 11 % Saline Control
- Survival Time: % Saline Control ([4]; 50 mg/kg): 63 ± 8 % Saline Control
- acceleration of seizure onset time ([4]; 50 mg/kg, 24 hr, listed as linolenyl ester of GABA): 70% and 60%
- In Vivo Delay of Time of Onset of Bicuculline-induced seizures [4]: 0

SMILES: CC/C=C\C/C=C\C/C=C\CCCCCCCC(=O)OCC(COC(=O)CCCN)OC(=O)CCCN (stereo not shown) [Compound 26, 1-linolenoyl-2,3-(gamma-aminobutyroyl)propane-1,2,3-triol]
- ED50 [5]: 69 µmol/kg
- Stereotypy score induced by D-Amphetamine Sulfate ([6]; 170 μmole/kg i.p. pretreatment, D-amphetamine sulfate 3 mg/kg, total score over 60 min (max 18), n = 4): 3.3 ± 0.9
- Stereotypy score induced by Apomorphine ([6]; 170 μmole/kg i.p. pretreatment, apomorphine 1 mg/kg, total score over 60 min (max 18), n = 4): 8 ± 3.6
- Stereotypy (% of control), D-Amphetamine Sulfate ([6]; 170 μmole/kg, D-amphetamine sulfate 3 mg/kg): 24 % of control
- Stereotypy (% of control), Apomorphine ([6]; 170 μmole/kg, apomorphine 1 mg/kg): 52 % of control
- remaining at 4 h ([7]; brain): 60%
- remaining at 4 h ([7]; kidney): 10%
- remaining at 4 h ([7]; liver): 30%
- logP at 18 h [8]: 0.322
- ED50 ([2]; Mus musculus, ip, 1 h, depression of locomotor activity at high doses, Figure 2): 36 mg/kg
- In Vivo Inhibition of General Motor Activity [2]: 4
- effect on motor activity at low doses [2]: enhancing locomotor activity; also recorded: enhances motor activity
- effect on motor activity at low doses ([2]; listed as monolinolenoyl-diGABA glyceride): stimulating activity
- (BRAIN) [3, 12]: 3.0 ± 0.2 nmol/g
- (LIVER) [3, 12]: 3.3 ± 0.2 nmol/g
- BPI [3, 12]: 90±13%
- (BRAIN) [3, 13]: 2.4 nmol/g
- (LIVER) [3, 13]: 2.9 nmol/g
- BPI [3, 13]: 87%
- (BRAIN) [3, 14]: 9.4 nmol/g
- (LIVER) [3, 14]: 5.5 nmol/g
- BPI [3, 14]: 170%
- increase of 5-min BPI over GABA [3]: 90 fold
- BPI [3, 11]: 90
- time at which liver levels reach a maximum ([3]; s.c., mice): 45 to 60 min
- anticonvulsant properties [4]: only weak anticonvulsant properties
- In Vivo Delay of Time of Onset of Bicuculline-induced seizures [4]: 4
- level present in the brain at ED50 [9]: 2.1

SMILES: CC/C=C\C/C=C\C/C=C\CCCCCCCC(=O)OCC(COC(=O)CCCN)OC(=O)CCCCCCC/C=C\C/C=C\C/C=C\CC (stereo not shown) [Compound 28, 1,2-dilinolenoyl-3-(gamma-aminobutyroyl)propane-1,2,3-triol]
- ED50 [5]: 43 µmol/kg
- logP at 18 h [8]: 0.82
- In Vivo Inhibition of General Motor Activity [2]: 4
- (BRAIN) [3, 15]: 1.4 nmol/g
- (LIVER) [3, 15]: 3.1 nmol/g
- BPI [3, 15]: 44%
- (BRAIN) [3, 16]: 7.1 nmol/g
- (LIVER) [3, 16]: 18.3 nmol/g
- BPI [3, 16]: 39%
- (BRAIN) [3, 17]: 5.9 ± 0.4 nmol/g
- (LIVER) [3, 17]: 4.7 ± 0.4 nmol/g
- BPI [3, 17]: 127±8.3%
- (BRAIN) [3, 18]: 6.0 nmol/g
- (LIVER) [3, 18]: 8.8 nmol/g
- BPI [3, 18]: 68%
- increase of 5-min BPI over GABA [3]: 127 fold
- BPI [3, 11]: 127
- time at which liver levels reach a maximum ([3]; s.c., mice): 45 to 60 min
- anticonvulsant properties [4]: only weak anticonvulsant properties
- In Vivo Delay of Time of Onset of Bicuculline-induced seizures [4]: 5
- level present in the brain at ED50 [9]: 1.7

— patent publication EP0133795B1 (THE McLEAN HOSPITAL CORPORATION, priority 1983, dated 1985)
